Test results taken from paper PMC8151276, “An Integrated Approach toward NanoBRET Tracers for Analysis of GPCR Ligand Engagement” (Molecules, 2021).

Legend:
[1] = target: T1, FZD6 (Homo sapiens, UniProt O60353); experiment: NanoBRET screen HiBiT-FZD6 in HEK293; format: binding
T1 construct: purchased Promega (in-house HiBiT-GPCR construct library, NanoBRET)
T1 sequence (O60353 19-706): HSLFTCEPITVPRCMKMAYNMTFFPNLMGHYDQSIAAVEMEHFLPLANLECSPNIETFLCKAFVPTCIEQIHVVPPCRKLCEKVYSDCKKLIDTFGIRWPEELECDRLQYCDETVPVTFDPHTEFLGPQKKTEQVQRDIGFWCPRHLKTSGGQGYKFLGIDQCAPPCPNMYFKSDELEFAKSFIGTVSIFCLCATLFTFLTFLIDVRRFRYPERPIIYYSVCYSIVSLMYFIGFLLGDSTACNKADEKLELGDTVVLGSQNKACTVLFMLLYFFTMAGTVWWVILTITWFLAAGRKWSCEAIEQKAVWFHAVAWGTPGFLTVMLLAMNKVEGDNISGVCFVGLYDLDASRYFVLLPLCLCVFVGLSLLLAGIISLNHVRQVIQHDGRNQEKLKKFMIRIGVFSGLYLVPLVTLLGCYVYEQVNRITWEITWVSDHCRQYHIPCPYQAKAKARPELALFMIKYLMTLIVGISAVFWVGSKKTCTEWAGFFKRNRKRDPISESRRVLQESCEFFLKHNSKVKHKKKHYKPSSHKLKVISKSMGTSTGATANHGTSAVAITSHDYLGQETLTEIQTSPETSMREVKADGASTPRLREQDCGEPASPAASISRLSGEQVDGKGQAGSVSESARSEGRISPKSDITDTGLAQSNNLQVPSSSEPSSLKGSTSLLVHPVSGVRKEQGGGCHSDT
Experimental: (§1) Each tracer candidate was screened across the entire library of HiBiT-GPCR constructs using NanoBRET as the detection modality. As depicted in Figure 4A, the specificity of interactions was evaluated through decrease in BRET due to competitive displacement of a bound tracer by excess parental compound. Each tracer was analyzed for binding to each HiBiT-GPCR fusion in the absence and in the presence of competing parental compound. Briefly, HEK293 cells were transfected with HiBiT-GPCR constructs diluted into promoterless DNA to reduce expression and maximize translocation to the cell surface. Each tracer candidate was then screened at concentrations of 1 μM and 0.1 μM across cells expressing these fusions. Cells were treated for 1.5 h with tracer either alone or in the presence of 20 μM competing parental compound (i.e., control). BRET was measured upon addition of purified LgBiT and subsequent complementation with HiBiT genetically fused to a GPCR. The specificity of interactions was assessed through a decrease in BRET signal due to competitive displacement of the bound tracer. To further gauge the robustness of these interactions, the fold response over the control (i.e., BRETtracer/BRETcontrol) was calculated. We chose a 1.5-fold response, which translates to ≥7-fold signal over noise as the minimal threshold required to score an interaction as positive. […]. Below we highlight the screening results obtained for our exemplary fluorescent tracers based on Clozapine, Amitriptyline and AZD1283.
(§2) HiBiT-GPCR DNA constructs were diluted in 10 mM Tris pH 8 to a final concentration of 0.01 μg/μL, arrayed in 96-well plates and stored at −20 °C. For transfection, HEK293 cells were suspended in Opti-MEM (without phenol red) supplemented with 2% fetal bovine serum (Seradigm) and 100 units/mL penicillin–streptomycin (Gibco) at a final concentration of 220,000 cells/mL and dispensed into white 96-well plates at 90 μL/well. Subsequent transfections and screens were carried using an Agilent Bravo Automated Liquid Handling Platform. First, the 96-well HiBiT DNA arrays were diluted 25-fold in Opti-MEM (without serum or phenol red) to a final concentration of 0.0004 μg/μL and 20 μL of the diluted DNAs were transferred into new 96-well plates. Next, promoterless carrier DNA (1 μg/μL) was diluted 25-fold (0.04 μg/μL) and then dispensed into the diluted arrays at 20 μL/well. Following brief mixing, Viafect transfection reagent (Promega) diluted 16-fold into Opti-MEM was dispensed into the plates at 40 μL/well. After mixing by pipetting, plates were incubated for 10 min on the pipetting station deck. The DNA-transfection reagent complexes were then added to plates containing cells. To facilitate the screen, 10 μL of DNA-transfection reagent complexes were added in duplicates to the top 4 and bottom 4 rows, resulting in two identical 48-well arrays per plate. Plates with transfected cells were incubated for 18–20 h at 37 °C/5% CO2. A screen of each tracer across the entire library using two different concentrations requires duplicate plates of transfected cells. Depending on the number of tracers being screened, transfections can be scaled up using the same ratios. The next day, for each tracer, four 20× screening solutions in tracer dilution buffer (Promega) were prepared: two duplicates at final concentration of 20 μM and two duplicates at a final concentration of 2 μM. A competing unmodified compound was added to one of each duplicate at a final concentration of 400 μM. The four resulting solutions were diluted 4-fold in Opti-MEM without serum or phenol red to generate 5× solutions (5 µM and 0.5 µM tracer +/− 100 μM competing compound). To screen the library, a BioTek MultiFlo FX liquid dispenser was used to dispense 22.5 µL of tracer solution to the top 4 rows and 22.5 µL tracer + competing compound solution to the 4 bottom rows. Plates were briefly mixed on an orbital shaker and incubated for 1.5 h at room temperature. […]

[2] = target: T2, CYSLTR2 (Homo sapiens, UniProt Q9NS75); experiment: NanoBRET screen HiBiT-CYSLTR2 in HEK293; format: binding
T2 construct: purchased Promega (in-house HiBiT-GPCR construct library, NanoBRET)
T2 sequence (Q9NS75 1-346): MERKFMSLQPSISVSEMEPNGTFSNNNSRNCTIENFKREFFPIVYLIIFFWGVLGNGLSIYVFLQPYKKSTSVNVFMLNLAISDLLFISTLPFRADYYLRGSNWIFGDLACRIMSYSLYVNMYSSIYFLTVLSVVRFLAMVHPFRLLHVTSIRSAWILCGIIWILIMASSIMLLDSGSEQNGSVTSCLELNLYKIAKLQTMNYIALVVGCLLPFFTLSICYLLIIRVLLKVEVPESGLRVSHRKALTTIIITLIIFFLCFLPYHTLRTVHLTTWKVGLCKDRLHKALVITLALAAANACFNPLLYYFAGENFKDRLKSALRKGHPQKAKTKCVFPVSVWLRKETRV
Experimental: as §1, §2

SMILES | NanoBRET Fold Response ([1]; FZD6, tracer 0.1μM) | NanoBRET Fold Response ([1]; FZD6, tracer 1μM) | NanoBRET Fold Response ([2]; CYSLTR2, tracer 0.1μM) | NanoBRET Fold Response ([2]; CYSLTR2, tracer 1μM) | other results
N#CN=C(NCCCOc1cccc(CN2CCCCC2)c1)NCCNC(=O)CCOCCOCCOCCOCCNC(=O)CCc1ccc2n1[B-](F)(F)[N+]1=C(c3ccc[nH]3)C=CC1=C2 [Aminopotentidine-2-NB590] | 1.03 | 1.03 | 1.05 | 0.98 | –
COc1ccc2c(n1)c(CCNC(C)=O)cn2CCNC(=O)CCc1ccc2n1[B-](F)(F)[N+]1=C(c3ccc[nH]3)C=CC1=C2 [Azamelatonin-1-NB590] | – | – | – | – | NanoBRET Fold Response ([1]; 0.1μM tracer): 1.09; NanoBRET Fold Response ([1]; 1μM tracer): 0.86; NanoBRET Fold Response ([2]; 0.1μM tracer): 1.37; NanoBRET Fold Response ([2]; 1μM tracer): 0.46
CC(C)N(CC[C@H](c1ccccc1)c1cc(CCNC(=O)c2ccc(CNC(=O)CCc3ccc4n3[B-](F)(F)[N+]3=C(c5ccc[nH]5)C=CC3=C4)cc2)ccc1O)C(C)C [Tolterodine-BZ-NB590] | 0.97 | 1.04 | 1.00 | 1.08 | –
CN1CCN(C2=Nc3cc(Cl)ccc3Nc3ccc(CNC(=O)CCOCCOCCOCCOCCNC(=O)CCc4ccc5n4[B-](F)(F)[N+]4=C(c6ccc[nH]6)C=CC4=C5)cc32)CC1 [Clozapine-b-2-NB590] | – | – | – | – | NanoBRET Fold Response ([1]; FZD6, 0.1μM tracer): 1.03; NanoBRET Fold Response ([1]; FZD6, 1μM tracer): 1.04; NanoBRET Fold Response ([2]; CYSLTR2, 0.1μM tracer): 1.01; NanoBRET Fold Response ([2]; CYSLTR2, 1μM tracer): 1.03
